Active and inactive are the calls of the source. The rule behind the calls is not given here.
Tested on: CCRIS mutagenicity, Ames/micronucleus/aberration tests
Assay: CCRIS mutagenicity studies
[1] = Test System: AMES SALMONELLA TYPHIMURIUM, Strain/Indicator: TA100, Metabolic Activation: NONE, Method: STANDARD PLATE

Measured: mutagenic call

O=C(O)c1cc(=O)c2c(OCC(O)COc3cccc4oc(C(=O)O)cc(=O)c34)cccc2o1
inactive: Test System: AMES SALMONELLA TYPHIMURIUM, Strain/Indicator: TA97, Metabolic Activation: HAMSTER, LIVER, S-9, AROCLOR 1254, Method: STANDARD PLATE inactive; negative | Test System: AMES SALMONELLA TYPHIMURIUM, Strain/Indicator: TA97, Metabolic Activation: NONE, Method: STANDARD PLATE inactive; negative | Test System: AMES SALMONELLA TYPHIMURIUM, Strain/Indicator: TA97, Metabolic Activation: RAT, LIVER, S-9, AROCLOR 1254, Method: STANDARD PLATE inactive; negative | Test System: AMES SALMONELLA TYPHIMURIUM, Strain/Indicator: TA98, Metabolic Activation: HAMSTER, LIVER, S-9, AROCLOR 1254 (2.5-20%), Method: STANDARD PLATE inactive; negative | Test System: AMES SALMONELLA TYPHIMURIUM, Strain/Indicator: TA98, Metabolic Activation: HAMSTER, LIVER, S-9, AROCLOR 1254, Method: STANDARD PLATE inactive; negative | Test System: AMES SALMONELLA TYPHIMURIUM, Strain/Indicator: TA98, Metabolic Activation: NONE, Method: STANDARD PLATE inactive; negative | Test System: AMES SALMONELLA TYPHIMURIUM, Strain/Indicator: TA98, Metabolic Activation: RAT, LIVER, S-9, AROCLOR 1254 (2.5-20%), Method: STANDARD PLATE inactive; negative | Test System: AMES SALMONELLA TYPHIMURIUM, Strain/Indicator: TA98, Metabolic Activation: RAT, LIVER, S-9, AROCLOR 1254, Method: STANDARD PLATE inactive; negative | Test System: AMES SALMONELLA TYPHIMURIUM, Strain/Indicator: TA100, Metabolic Activation: HAMSTER, LIVER, S-9, AROCLOR 1254, Method: STANDARD PLATE inactive; negative | [1] inactive; negative | Test System: AMES SALMONELLA TYPHIMURIUM, Strain/Indicator: TA100, Metabolic Activation: RAT, LIVER, S-9, AROCLOR 1254, Method: STANDARD PLATE inactive; negative | Test System: AMES SALMONELLA TYPHIMURIUM, Strain/Indicator: TA1535, Metabolic Activation: HAMSTER, LIVER, S-9, AROCLOR 1254, Method: STANDARD PLATE inactive; negative | Test System: AMES SALMONELLA TYPHIMURIUM, Strain/Indicator: TA1535, Metabolic Activation: NONE, Method: STANDARD PLATE inactive; negative | Test System: AMES SALMONELLA TYPHIMURIUM, Strain/Indicator: TA1535, Metabolic Activation: RAT, LIVER, S-9, AROCLOR 1254, Method: STANDARD PLATE inactive; negative | Test System: AMES SALMONELLA TYPHIMURIUM, Strain/Indicator: TA1537, Metabolic Activation: HAMSTER, LIVER, S-9, AROCLOR 1254, Method: STANDARD PLATE inactive; negative | Test System: AMES SALMONELLA TYPHIMURIUM, Strain/Indicator: TA1537, Metabolic Activation: NONE, Method: STANDARD PLATE inactive; negative | Test System: AMES SALMONELLA TYPHIMURIUM, Strain/Indicator: TA1537, Metabolic Activation: RAT, LIVER, S-9, AROCLOR 1254, Method: STANDARD PLATE inactive; negative | Test System: AMES SALMONELLA TYPHIMURIUM, Strain/Indicator: TA1538, Metabolic Activation: HAMSTER, LIVER, S-9, AROCLOR 1254 (2.5-20%), Method: STANDARD PLATE inactive; negative | Test System: AMES SALMONELLA TYPHIMURIUM, Strain/Indicator: TA1538, Metabolic Activation: HAMSTER, LIVER, S-9, AROCLOR 1254, Method: STANDARD PLATE inactive; negative | Test System: AMES SALMONELLA TYPHIMURIUM, Strain/Indicator: TA1538, Metabolic Activation: NONE, Method: STANDARD PLATE inactive; negative | Test System: AMES SALMONELLA TYPHIMURIUM, Strain/Indicator: TA1538, Metabolic Activation: RAT, LIVER, S-9, AROCLOR 1254 (2.5-20%), Method: STANDARD PLATE inactive; negative | Test System: AMES SALMONELLA TYPHIMURIUM, Strain/Indicator: TA1538, Metabolic Activation: RAT, LIVER, S-9, AROCLOR 1254, Method: STANDARD PLATE inactive; negative | Test System: MOUSE LYMPHOMA, Strain/Indicator: L5178Y (TK+/TK-), Metabolic Activation: NONE, Method: SUSPENSION/PLATE inactive; negative; reevaluation of results: negative | Test System: MOUSE LYMPHOMA, Strain/Indicator: L5178Y (TK+/TK-), Metabolic Activation: RAT, LIVER, S-9, AROCLOR 1254, Method: SUSPENSION/PLATE inactive; negative. reevaluation of results: negative

CN(C)/N=N/c1nc[nH]c1C(N)=O
active: Test System: AMES SALMONELLA TYPHIMURIUM, Strain/Indicator: G46, Metabolic Activation: RAT, LIVER, S-9, PHENOBARBITAL, Method: STANDARD PLATE active; positive | Test System: AMES SALMONELLA TYPHIMURIUM, Strain/Indicator: TA92, Metabolic Activation: NONE, Method: STANDARD PLATE active; positive | Test System: AMES SALMONELLA TYPHIMURIUM, Strain/Indicator: TA92, Metabolic Activation: RAT, LIVER, S-9, PHENOBARBITAL, Method: STANDARD PLATE active; positive | Test System: AMES SALMONELLA TYPHIMURIUM, Strain/Indicator: TA97, Metabolic Activation: HAMSTER, LIVER, S-9, AROCLOR 1254 (10%), Method: PREINCUBATION active; positive | Test System: AMES SALMONELLA TYPHIMURIUM, Strain/Indicator: TA97, Metabolic Activation: NONE, Method: PREINCUBATION active; positive | Test System: AMES SALMONELLA TYPHIMURIUM, Strain/Indicator: TA97, Metabolic Activation: RAT, LIVER, S-9, AROCLOR 1254 (10%), Method: PREINCUBATION active; positive | Test System: AMES SALMONELLA TYPHIMURIUM, Strain/Indicator: TA98, Metabolic Activation: HAMSTER, LIVER, S-9, AROCLOR 1254 (10%), Method: PREINCUBATION active; positive | Test System: AMES SALMONELLA TYPHIMURIUM, Strain/Indicator: TA98, Metabolic Activation: RAT, LIVER, S-9, AROCLOR 1254 (10%), Method: PREINCUBATION active; positive | Test System: AMES SALMONELLA TYPHIMURIUM, Strain/Indicator: TA100, Metabolic Activation: HAMSTER, LIVER, S-9, AROCLOR 1254 (10%), Method: PREINCUBATION active; positive | [1] active; positive | Test System: AMES SALMONELLA TYPHIMURIUM, Strain/Indicator: TA100, Metabolic Activation: RAT, LIVER, S-9, AROCLOR 1254 (10%), Method: PREINCUBATION active; positive | Test System: AMES SALMONELLA TYPHIMURIUM, Strain/Indicator: TA100, Metabolic Activation: RAT, LIVER, S-9, PHENOBARBITAL, Method: STANDARD PLATE active; positive | Test System: AMES SALMONELLA TYPHIMURIUM, Strain/Indicator: TA1535, Metabolic Activation: HAMSTER, LIVER, S-9, AROCLOR 1254 (10%), Method: PREINCUBATION active; positive | Test System: AMES SALMONELLA TYPHIMURIUM, Strain/Indicator: TA1535, Metabolic Activation: RAT, LIVER, S-9, AROCLOR 1254 (10%), Method: PREINCUBATION active; positive | Test System: E. COLI, Strain/Indicator: TM6, Metabolic Activation: NONE, Method: STANDARD PLATE active; positive | Test System: E. COLI, Strain/Indicator: TM6, Metabolic Activation: RAT, LIVER, S-9, PHENOBARBITAL, Method: STANDARD PLATE active; positive | Test System: E. COLI, Strain/Indicator: TM9, Metabolic Activation: NONE, Method: STANDARD PLATE active; positive | Test System: E. COLI, Strain/Indicator: TM9, Metabolic Activation: RAT, LIVER, S-9, PHENOBARBITAL, Method: STANDARD PLATE active; positive | Test System: E. COLI, Strain/Indicator: WP2, Metabolic Activation: NONE, Method: STANDARD PLATE active; positive | Test System: E. COLI, Strain/Indicator: WP2, Metabolic Activation: RAT, LIVER, S-9, PHENOBARBITAL, Method: STANDARD PLATE active; positive | Test System: E. COLI, Strain/Indicator: WP2 UVRA, Metabolic Activation: NONE, Method: STANDARD PLATE active; positive | Test System: E. COLI, Strain/Indicator: WP2 UVRA, Metabolic Activation: RAT, LIVER, S-9, PHENOBARBITAL, Method: STANDARD PLATE active; positive
inactive: Test System: AMES SALMONELLA TYPHIMURIUM, Strain/Indicator: G46, Metabolic Activation: NONE, Method: STANDARD PLATE inactive; negative | Test System: AMES SALMONELLA TYPHIMURIUM, Strain/Indicator: TA98, Metabolic Activation: S-9, Method: PREINCUBATION inactive; negative | Test System: AMES SALMONELLA TYPHIMURIUM, Strain/Indicator: TA100, Metabolic Activation: S-9, Method: PREINCUBATION inactive; negative | Test System: AMES SALMONELLA TYPHIMURIUM, Strain/Indicator: TA1535, Metabolic Activation: NONE, Method: PREINCUBATION inactive; negative
